Source: patent US12551536B2, “Semaglutide in medical therapy” (Novo Nordisk A/S, priority 2017, dated 2026)

Assay: 26-week clinical trial in adult patients with T2D: gastrointestinal adverse events incl. nausea
Format: in vivo, human
Settings: on-treatment
Protocol: A 26-week, randomized, double-blind clinical trial was carried out with adult patients with T2D, HbA1c 7.0-10.0% (53-86 mmol/mol), and body mass index 24.0-40.0 kg/m^2 who were treated with diet and exercise±metformin. […] The primary endpoint was change in HbA1c from baseline to week 26. Key exclusion criteria were a history of chronic or idiopathic acute pancreatitis and moderate-to-severe renal impairment (estimated glomerular filtration rate <60 mL/min/1.73 m^2).
Trial drug administration: Following a 2-week screening period, patients received trial medication for 26 weeks, followed by a 7-week follow-up period. […] The trial was double blinded within (but not between) each dose level of semaglutide, liraglutide and placebo, as treatment was volume matched.

[1] = Sema 0.05 mg once daily s.c., N 64
[2] = Sema 0.1 mg once daily s.c., N 63
[3] = Sema 0.2 mg once daily s.c., N 65
[4] = Sema 0.3 mg once daily s.c., N 63

N^6.26-{18-[N-(17-carboxyheptadecanoyl)-L-γ-glutamyl]-10-oxo-3,6,12,15-tetraoxa-9,18-diazaoctadecanoyl}-[8-(2-amino-2-propanoic acid),34-L-arginine]human glucagon-like peptide 1(7-37) [Sema]
Gastrointestinal adverse events, % (percentage of patients experiencing at least one event) (Sema 0.05 mg once daily s.c.): 32.8% | Gastrointestinal adverse events, E (number of events) (Sema 0.05 mg once daily s.c.): 61 | Nausea, % (percentage of patients experiencing at least one event) (Sema 0.05 mg once daily s.c.): 17.2% | Nausea, E (number of events) (Sema 0.05 mg once daily s.c.): 16 | Gastrointestinal adverse events, Ne (number of patients experiencing at least one event) [1]: 21 | Nausea, Ne (number of patients experiencing at least one event) [1]: 11 | Gastrointestinal adverse events, % (percentage of patients experiencing at least one event) (Sema 0.1 mg once daily s.c.): 44.4% | Gastrointestinal adverse events, E (number of events) (Sema 0.1 mg once daily s.c.): 90 | Nausea, % (percentage of patients experiencing at least one event) (Sema 0.1 mg once daily s.c.): 19.0% | Nausea, E (number of events) (Sema 0.1 mg once daily s.c.): 20 | Gastrointestinal adverse events, Ne (number of patients experiencing at least one event) [2]: 28 | Nausea, Ne (number of patients experiencing at least one event) [2]: 12 | Gastrointestinal adverse events, % (percentage of patients experiencing at least one event) (Sema 0.2 mg once daily s.c.): 46.2% | Gastrointestinal adverse events, E (number of events) (Sema 0.2 mg once daily s.c.): 106 | Nausea, % (percentage of patients experiencing at least one event) (Sema 0.2 mg once daily s.c.): 21.5% | Nausea, E (number of events) (Sema 0.2 mg once daily s.c.): 22 | Gastrointestinal adverse events, Ne (number of patients experiencing at least one event) [3]: 30 | Nausea, Ne (number of patients experiencing at least one event) [3]: 14 | Gastrointestinal adverse events, % (percentage of patients experiencing at least one event) (Sema 0.3 mg once daily s.c.): 54.0% | Gastrointestinal adverse events, E (number of events) (Sema 0.3 mg once daily s.c.): 101 | Nausea, % (percentage of patients experiencing at least one event) (Sema 0.3 mg once daily s.c.): 25.4% | Nausea, E (number of events) (Sema 0.3 mg once daily s.c.): 22 | Gastrointestinal adverse events, Ne (number of patients experiencing at least one event) [4]: 34 | Nausea, Ne (number of patients experiencing at least one event) [4]: 16
